From patent US9057093B2 (priority 2010, dated 2015)
Like-named read-outs stand apart in the source and are kept apart here.

Test system: Legionella pneumophila strains
Assay type: cell-based
Conditions: for optimal dose: dose giving best improvement in latency and/or growth rate
[1] = doses of between 10^−6 to 10^−2 mM, especially 10^−4 mM, numerous strains
[2] = supplemented medium vs reference medium (YEC), doses between 0.01 and 5% weight of compound on volume of sample, variety of strains

**Q.** With `[Ca+2].[Cl-].[Cl-]` [calcium chloride] as the molecule, how does the “latency and/or growth rate” value [1] read?
**A.** Improvements in latency and/or growth rate

**Q.** Which “latency and/or growth rate” value [1] does the source give for `[Cl-].[Cl-].[Mg+2]` [magnesium chloride] here?
**A.** Improvements in latency and/or growth rate

**Q.** `[Cl-].[K+]` [potassium chloride] was tested. Which “latency and/or growth rate” value (doses of between 1 to 10^−4 mM, especially around 10^−2 mM, a number of strains) did it give?
**A.** Improvements in latency and/or growth rate

**Q.** `N[C@@H](CO)C(=O)O` [serine] was tested. Which optimal dose did it give?
**A.** around 1 g per litre

**Q.** And the “latency and/or growth rate” value [2]?
**A.** improvements in latency and/or growth rate

**Q.** What does the source list for `C[C@@H](O)[C@H](N)C(=O)O` [threonine]?
**A.** optimal dose: around 1 g per litre; latency and/or growth rate [2]: improvements in latency and/or growth rate
